From patent publication US8754071B2 (priority 2011, dated 2014)
pIC50: −log10 of the molar value.

target: T1, c-kit (Homo sapiens, UniProt P10721); experiment: Mo7e cell proliferation assay (SCF dependent proliferation); assay type: cell-based; details: Table 1; human Mo7e cells stimulated with SCF, 48 hours, CellTiter Glo; 1% FBS; read-out: c-kit (Mo7e)
T1 construct: human Mo7e cells which endogenously express c-kit; endogenous in cells; host or cells: human Mo7e cells (promegakaryocytic leukemia line), stimulated with human recombinant SCF
T1 sequence (P10721 26-976): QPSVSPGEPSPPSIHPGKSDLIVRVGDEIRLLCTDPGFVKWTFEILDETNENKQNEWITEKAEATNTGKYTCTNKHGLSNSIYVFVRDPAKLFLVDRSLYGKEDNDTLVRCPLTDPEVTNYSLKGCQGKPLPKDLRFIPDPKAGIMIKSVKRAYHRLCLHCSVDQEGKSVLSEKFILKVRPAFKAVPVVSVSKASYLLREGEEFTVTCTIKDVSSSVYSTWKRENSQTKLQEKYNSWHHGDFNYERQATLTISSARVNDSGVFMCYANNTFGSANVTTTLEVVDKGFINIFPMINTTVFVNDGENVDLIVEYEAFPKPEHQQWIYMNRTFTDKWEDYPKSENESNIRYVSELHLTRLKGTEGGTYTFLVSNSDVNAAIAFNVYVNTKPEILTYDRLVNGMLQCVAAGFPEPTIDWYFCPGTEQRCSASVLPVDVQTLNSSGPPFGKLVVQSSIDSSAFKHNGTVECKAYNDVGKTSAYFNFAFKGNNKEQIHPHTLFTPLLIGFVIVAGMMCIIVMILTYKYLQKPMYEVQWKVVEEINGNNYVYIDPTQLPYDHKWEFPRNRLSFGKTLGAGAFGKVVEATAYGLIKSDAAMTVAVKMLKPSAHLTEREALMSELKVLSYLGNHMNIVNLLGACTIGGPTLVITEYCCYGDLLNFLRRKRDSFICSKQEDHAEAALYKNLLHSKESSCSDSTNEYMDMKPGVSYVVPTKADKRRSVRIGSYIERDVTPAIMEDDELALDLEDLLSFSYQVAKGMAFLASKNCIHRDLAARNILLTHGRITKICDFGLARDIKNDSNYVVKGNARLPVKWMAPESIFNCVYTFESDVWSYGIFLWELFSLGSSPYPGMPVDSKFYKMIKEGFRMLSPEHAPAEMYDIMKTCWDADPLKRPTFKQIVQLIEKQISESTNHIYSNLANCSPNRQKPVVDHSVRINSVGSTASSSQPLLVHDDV
Procedure: Mo7e Cell Proliferation Assay The compounds of Table 1 and Table 2 were tested for inhibition of SCF dependent proliferation using human Mo7e cells which endogenously express c-kit in a 384 well format. […] After 48 hours of incubation at 37° C., cell viability was measured by adding 25 uL of CellTiter Glo (Promega) to the cells and the luminescence was measured by a […] camera (Molecular Devices). […] The IC50 value is given as that concentration of the test compound in question that provoke a response halfway between the baseline and maximum responses.

Row | pIC50 | Compound
1 | 6.88 | Cc1ccc(-c2noc(N3CCC3)n2)cc1NC(=O)c1cnc2ccccn12 [F77, N-(5-(5-(azetidin-1-yl)-1,2,4-oxadiazol-3-yl)-2-methylphenyl)imidazo[1,2-a]pyridine-3-carboxamide]
2 | 7.26 | Cc1ccc(-c2noc(N3CC(F)(F)C3)n2)cc1NC(=O)c1cnc2ccccn12 [F78]
3 | 7.43 | COC(=O)N1CC(c2nc(-c3cc(NC(=O)c4cnc5ccccn45)c(C)cc3C)no2)C1 [F79, methyl 3-(3-(5-(imidazo[1,2-a]pyridine-3-carboxamido)-2,4-dimethylphenyl)-1,2,4-oxadiazol-5-yl)azetidine-1-carboxylate]
4 | 7.36 | [2H]C([2H])([2H])c1ccn2c(C(=O)Nc3cc(-c4noc(C5CN(C(=O)OC)C5)n4)ccc3C)cnc2c1 [F80, methyl 3-(3-(4-methyl-3-(7-methyl-d3-imidazo[1,2-a]pyridine-3-carboxamido)phenyl)-1,2,4-oxadiazol-5-yl)azetidine-1-carboxylate]
5 | 7.08 | Cc1ccc(-c2noc(NC3CCOCC3)n2)cc1NC(=O)c1cnc2cc(F)ccn12 [F81]
6 | 7.26 | Cc1ccc2ncc(C(=O)Nc3cc(-c4noc(NC5CCOCC5)n4)ccc3C)n2c1 [F82]
7 | 7.40 | COC(=O)N1CC(c2nc(-c3ccc(C)c(NC(=O)c4cnc5ccc(N6CCOCC6)cn45)c3)no2)C1 [F83]
8 | 7.42 | COC(=O)N1CC(c2nc(-c3ccc(C)c(NC(=O)c4cnc5ccc(COCC(F)(F)F)cn45)c3)no2)C1 [F84]
9 | 7.03 | Cc1ccn2c(C(=O)Nc3cc(-c4noc(N5CC(F)(F)C5)n4)ccc3C)cnc2c1 [F86]
10 | 7.04 | Cc1ccc(-c2noc(N3CC(F)(F)C3)n2)cc1NC(=O)c1cnc2cc(F)ccn12 [F87]
11 | 7.21 | Cc1ccn2c(C(=O)Nc3cc(-c4noc(N5CC(C)(O)C5)n4)ccc3C)cnc2c1 [F88]
12 | 7.51 | Cc1ccn2c(C(=O)Nc3cc(-c4noc(N5CCC(F)(F)CC5)n4)ccc3C)cnc2c1 [F89]
13 | 7.48 | Cc1ccn2c(C(=O)Nc3cc(-c4noc(N5CCC(F)CC5)n4)ccc3C)cnc2c1 [F90]
14 | 7.19 | Cc1ccn2c(C(=O)Nc3cc(-c4noc(N5CCOCC5)n4)ccc3C)cnc2c1 [F91]
15 | 7.68 | Cc1ccn2c(C(=O)Nc3cc(-c4noc(N5CCC(F)(F)C5)n4)ccc3C)cnc2c1 [F92]
16 | 7.32 | Cc1ccn2c(C(=O)Nc3cc(-c4noc(N5CCCC(C(F)(F)F)C5)n4)ccc3C)cnc2c1 (centres unmarked) [F93]
17 | 7.04 | Cc1ccc(-c2nc(N3C[C@@H]4C[C@H]3CO4)no2)cc1NC(=O)c1cnc2ccccn12 [F94]
18 | 7.72 | COC(=O)N1CC(c2nc(-c3ccc(C)c(NC(=O)c4cnc5ccc(COCC(F)F)cn45)c3)no2)C1 [F95, methyl 3-(3-(3-(6-((2,2-difluoroethoxy)methyl)imidazo[1,2-a]pyridine-3-carboxamido)-4-methylphenyl)-1,2,4-oxadiazol-5-yl)azetidine-1-carboxylate]
19 | 7.59 | COC(=O)N1CC(c2nc(-c3ccc(C)c(NC(=O)c4cnc5ccc(COCCF)cn45)c3)no2)C1 [F96]
20 | 7.36 | [2H]c1ccn2c(C(=O)Nc3cc(-c4noc(C5CN(C(=O)OC)C5)n4)ccc3C)cnc2c1 [F97, methyl 3-(3-(3-(7-deuteroimidazo[1,2-a]pyridine-3-carboxamido)-4-methylphenyl)-1,2,4-oxadiazol-5-yl)azetidine-1-carboxylate]
21 | 7.37 | [2H]c1ccc2ncc(C(=O)Nc3cc(-c4noc(C5CN(C(=O)OC)C5)n4)ccc3C)n2c1 [F98]
22 | 7.31 | Cc1nc(C)c(-c2ccc3ncc(C(=O)Nc4cc(-c5noc(CN6CC(C#N)C6)n5)ccc4C)n3c2)s1 [F99]

same assay, conditions: Table 2; human Mo7e cells stimulated with SCF, 48 hours, CellTiter Glo; 1% FBS; read-out: c-kit (Mo7e)

Row | Compound | pIC50
23 | Cc1ccc(-c2nc(CCOC3CCN(Cc4ccccc4)CC3)no2)cc1NC(=O)c1cnc2ccccn12 [F100] | 6.70
24 | COC(=O)N1CC(c2noc(-c3ccc(C)c(NC(=O)c4cnc5ccccn45)c3)n2)C1 [F101] | 6.48
25 | Cc1ccc(-c2noc(C3CCOCC3)n2)cc1NC(=O)c1cnc2ccccn12 [F102] | 6.54
26 | Cc1ccc(-c2noc(C3CCN(C(=O)OC(C)(C)C)CC3)n2)cc1NC(=O)c1cnc2ccccn12 [F105] | 6.30
27 | Cc1ccc(-c2noc(C3CCCN3C(=O)OC(C)(C)C)n2)cc1NC(=O)c1cnc2ccccn12 (centres unmarked) [F106] | 6.03
28 | Cc1ccc(-c2noc(C3CCN(C(=O)OC(C)(C)C)C3)n2)cc1NC(=O)c1cnc2ccccn12 (centres unmarked) [F107] | 6.04
29 | Cc1ccc(-c2noc(C3CCCCN3)n2)cc1NC(=O)c1cnc2ccccn12 (centres unmarked) [F109] | 6.67
30 | Cc1ccc(-c2noc(C3CCCCN3C)n2)cc1NC(=O)c1cnc2ccccn12 (centres unmarked) [F111] | 6.61
31 | Cc1ccc(-c2noc(C3CCC(O)CO3)n2)cc1NC(=O)c1cnc2ccccn12 (centres unmarked) [F112] | 6.64
32 | Cc1ccc(-c2noc(C3CN(C(=O)OC(C)(C)C)C3)n2)cc1NC(=O)c1cnc2ccccn12 [F113] | 6.21
33 | Cc1ccc(-c2noc(C3CC[C@H](O)CO3)n2)cc1NC(=O)c1cnc2ccccn12 (some centres unmarked) [F114] | 6.74
34 | CC(=O)N1CC(c2nc(-c3ccc(C)c(NC(=O)c4cnc5ccccn45)c3)no2)C1 [F115] | 6.33
35 | Cc1ccc(-c2noc([C@@H]3COCCN3C(=O)OC(C)(C)C)n2)cc1NC(=O)c1cnc2ccccn12 [F116] | 6.10
36 | Cc1ccc(-c2noc([C@H]3COCCN3C(=O)OC(C)(C)C)n2)cc1NC(=O)c1cnc2ccccn12 [F117] | 6.20

The next lines start with the values.

Row | pIC50 | Compound
37 | 6.03 | Cc1ccc(-c2noc([C@H]3COCCN3)n2)cc1NC(=O)c1cnc2ccccn12 [F118]
38 | 6.36 | Cc1ccc(-c2noc([C@@H]3CCCC(=O)N3)n2)cc1NC(=O)c1cnc2ccccn12 [F119]
39 | 6.51 | Cc1ccc(-c2noc([C@@H]3CC(F)(F)CN3C(=O)OC(C)(C)C)n2)cc1NC(=O)c1cnc2ccccn12 [F120]
40 | 6.69 | Cc1ccc(-c2noc([C@@H]3CC(F)(F)CN3)n2)cc1NC(=O)c1cnc2ccccn12 [F121]
41 | 6.53 | Cc1ccc(-c2noc([C@@H]3CN(C(=O)OC(C)(C)C)CCO3)n2)cc1NC(=O)c1cnc2ccccn12 [F122]
42 | 6.28 | Cc1ccc(-c2noc([C@@H]3CNCCO3)n2)cc1NC(=O)c1cnc2ccccn12 [F123]
43 | 6.37 | Cc1ccc(-c2noc(CCC(=O)N3CCOCC3)n2)cc1NC(=O)c1cnc2ccccn12 [F124]
44 | 6.37 | Cc1ccc(-c2noc(CCC(=O)N3CCC(F)(F)C3)n2)cc1NC(=O)c1cnc2ccccn12 [F125]
45 | 6.05 | Cc1ccc(-c2noc(C3CN(C(=O)OC4(C)CC4)C3)n2)cc1NC(=O)c1cnc2ccccn12 [F126]
46 | 6.29 | COCCOC(=O)N1CC(c2nc(-c3ccc(C)c(NC(=O)c4cnc5ccccn45)c3)no2)C1 [F127]
47 | 6.85 | Cc1ccc(-c2noc(C3(C)COC3)n2)cc1NC(=O)c1cnc2ccccn12 [F128]
48 | 6.51 | Cc1ccc(-c2noc(CN3CC(C#N)C3)n2)cc1NC(=O)c1cnc2ccccn12 [F129]
49 | 6.90 | Cc1ccc(-c2noc(CN3CC(F)C3)n2)cc1NC(=O)c1cnc2ccccn12 [F130]
50 | 6.13 | Cc1ccc(-c2noc(CN3CC(O)C3)n2)cc1NC(=O)c1cnc2ccccn12 [F131]
51 | 6.55 | COC1CN(Cc2nc(-c3ccc(C)c(NC(=O)c4cnc5ccccn45)c3)no2)C1 [F132]
52 | 6.86 | Cc1ccc(-c2noc(C3CN(S(=O)(=O)NC(=O)OC(C)(C)C)C3)n2)cc1NC(=O)c1cnc2ccccn12 [F133]

Row | pIC50 | Compound
53 | 6.05 | Cc1ccc(-c2noc(C3CN(C(=O)OCCN4CCOCC4)C3)n2)cc1NC(=O)c1cnc2ccccn12 [F134]
54 | 6.12 | Cc1ccc(-c2noc(C3CN(C(=O)OCCCN4CCOCC4)C3)n2)cc1NC(=O)c1cnc2ccccn12 [F135]
55 | 6.27 | Cc1ccc(-c2noc([C@@H]3CCN3)n2)cc1NC(=O)c1cnc2ccccn12 [F136]
56 | 6.10 | Cc1ccc(-c2noc(COC(=O)NC3CN(C)C3)n2)cc1NC(=O)c1cnc2ccccn12 [F137]
57 | 6.57 | COC1CN(C(=O)OCc2nc(-c3ccc(C)c(NC(=O)c4cnc5ccccn45)c3)no2)C1 [F138]
58 | 6.86 | Cc1ccc(-c2noc(C3(NC(=O)OC(C)(C)C)COC3)n2)cc1NC(=O)c1cnc2ccccn12 [F139]
59 | 6.99 | COC(=O)NC1(c2nc(-c3ccc(C)c(NC(=O)c4cnc5ccccn45)c3)no2)COC1 [F140]
60 | 6.15 | COCC(=O)NC1(c2nc(-c3ccc(C)c(NC(=O)c4cnc5ccccn45)c3)no2)COC1 [F141]
61 | 6.24 | Cc1ccc(-c2noc(CN3CCOC3=O)n2)cc1NC(=O)c1cnc2ccccn12 [F142]
62 | 6.50 | Cc1ccc(-c2noc(CN3CCCC3=O)n2)cc1NC(=O)c1cnc2ccccn12 [F143]
63 | 6.02 | Cc1ccc(-c2noc(CNC(=O)CN3CCOCC3)n2)cc1NC(=O)c1cnc2ccccn12 [F144]
64 | 6.35 | Cc1ccc(-c2noc(CNC(=O)CC3CCCO3)n2)cc1NC(=O)c1cnc2ccccn12 (centres unmarked) [F145]
65 | 6.73 | Cc1ccc(-c2noc(CNC(=O)[C@H]3CCCO3)n2)cc1NC(=O)c1cnc2ccccn12 [F146]
66 | 6.63 | Cc1ccc(-c2noc(CNC(=O)[C@@H]3CCCO3)n2)cc1NC(=O)c1cnc2ccccn12 [F147]
67 | 6.82 | Cc1ccc(-c2noc(CNC(=O)C3(C)COC3)n2)cc1NC(=O)c1cnc2ccccn12 [F148]
68 | 6.16 | Cc1ccc(-c2noc(CNC(=O)C3CCOCC3)n2)cc1NC(=O)c1cnc2ccccn12 [F149]

same assay, conditions: Table 2; values marked *: 20% FBS instead of 1% FBS; read-out: c-kit (Mo7e)

Row | pIC50 | Compound
69 | 6.64 | Cc1ccc(-c2noc([C@H]3CCCO3)n2)cc1NC(=O)c1cnc2ccccn12 [F103]
70 | 6.65 | Cc1ccc(-c2noc([C@@H]3CCCO3)n2)cc1NC(=O)c1cnc2ccccn12 [F104]
71 | 6.64 | Cc1ccc(-c2noc(C3CCCCN3S(C)(=O)=O)n2)cc1NC(=O)c1cnc2ccccn12 (centres unmarked) [F110]
